In article PMC9501035, “Synthesis of Novel N-Methylmorpholine-Substituted Benzimidazolium Salts as Potential α-Glucosidase Inhibitors” (Molecules, 2022):
Where “and” joins values, the source holds several entries; their conditions need not be identical. Equal entries are not always repeated. Where two headings read alike, the source gives them in different places.

Experiments:
α-glucosidase [1] = test: In vitro α-glucosidase inhibition (spectroscopic method); assay type: biochemical; settings: means of experiments, n = 3
Procedure: α-Glucosidase inhibitions were determined following a modified spectroscopic method. The detailed protocol was already reported. Each experiment was carried out thrice, and percentage inhibitions were determined with the help of the following expression, followed by the determination of IC50 values:% Inhibition = [(Acontrol − Asample)/Acontrol] × 100 where ‘A’ stands for absorbance.

α-glucosidase [2] = settings: cited from earlier work
[3] = structural hybrids with piperazine and morpholine

IC50 (α-glucosidase [1])	SMILES	further results
88 ± 0.08 µM	Cc1ccc(NC(=O)C[n+]2c(CN3CCOCC3)n(Cc3ccccc3)c3ccccc32)cc1 [Compound 5j, 1-Benzyl-3-(2-((4-methylphenyl)amino)-2-oxoethyl)-2-(morpholinomethyl)-1H-benzo[d]imidazol-3-ium chloride]	–
26 µM and 25 µM	COc1ccccc1NC(=O)C[n+]1c(CN2CCOCC2)n(Cc2ccccc2)c2ccccc21 [Compound 5k, 1-Benzyl-3-(2-((2-methoxyphenyl)amino)-2-oxoethyl)-2-(morpholinomethyl)-1H-benzo[d]imidazol-3-ium chloride]	–
110 ± 0.113 µM	O=C(C[n+]1c(CN2CCOCC2)n(Cc2ccccc2)c2ccccc21)Nc1ccccc1 [Compound 5m, 1-Benzyl-2-(morpholinomethyl)-3-(2-oxo-2-(phenylamino)ethyl)-1H-benzo[d]imidazol-3-ium chloride]	–
35 ± 0.02 µM	O=C(C[n+]1c(CN2CCOCC2)n(Cc2ccccc2)c2ccccc21)Nc1ccc(Cl)cc1 [Compound 5b, 1-Benzyl-3-(2-((4-chlorophenyl)amino)-2-oxoethyl)-2-(morpholinomethyl)-1H-benzo[d]imidazol-3-ium chloride]	–
25 ± 0.106 µM	O=C(C[n+]1c(CN2CCOCC2)n(Cc2ccccc2)c2ccccc21)Nc1ccc([N+](=O)[O-])cc1 [Compound 5g, 1-Benzyl-3-(2-((4-nitrophenyl)amino)-2-oxoethyl)-2-(morpholinomethyl)-1H-benzo[d]imidazol-3-ium chloride]	–
15 ± 0.03 µM	O=C(C[n+]1c(CN2CCOCC2)n(Cc2ccccc2)c2ccccc21)Nc1ccc(Br)cc1 [Compound 5d, 1-Benzyl-3-(2-((4-bromophenyl)amino)-2-oxoethyl)-2-(morpholinomethyl)-1H-benzo[d]imidazol-3-ium chloride]	–
47 ± 0.05 µM	Cc1cccc(NC(=O)C[n+]2c(CN3CCOCC3)n(Cc3ccccc3)c3ccccc32)c1 [Compound 5i, 1-Benzyl-3-(2-((3-methylphenyl)amino)-2-oxoethyl)-2-(morpholinomethyl)-1H-benzo[d]imidazol-3-ium chloride]	–
65 ± 0.015 µM	COc1ccc(NC(=O)C[n+]2c(CN3CCOCC3)n(Cc3ccccc3)c3ccccc32)cc1 [Compound 5l, 1-Benzyl-3-(2-((4-methoxyphenyl)amino)-2-oxoethyl)-2-(morpholinomethyl)-1H-benzo[d]imidazol-3-ium chloride]	–
21 ± 0.076 µM	Cc1ccccc1NC(=O)C[n+]1c(CN2CCOCC2)n(Cc2ccccc2)c2ccccc21 [Compound 5h, 1-Benzyl-3-(2-((2-methylphenyl)amino)-2-oxoethyl)-2-(morpholinomethyl)-1H-benzo[d]imidazol-3-ium chloride]	–

More lines, now with the values behind:

SMILES	IC50 (α-glucosidase [1])	further results
O=C(C[n+]1c(CN2CCOCC2)n(Cc2ccccc2)c2ccccc21)Nc1cccc([N+](=O)[O-])c1 [Compound 5f, 1-Benzyl-3-(2-((3-nitrophenyl)amino)-2-oxoethyl)-2-(morpholinomethyl)-1H-benzo[d]imidazol-3-ium chloride]	19 ± 0.06 µM	–
COc1ccc(/C(CSc2nc3ccccc3[nH]2)=N\N=C\c2ccc(OC)cc2O)cc1 [I]	–	IC50 (α-glucosidase [2]; benzimidazole-bearing Schiff bases): 2.2 ± 0.1 µM
O=C(C[n+]1c(CN2CCOCC2)n(Cc2ccccc2)c2ccccc21)Nc1ccccc1Br [Compound 5c, 1-Benzyl-3-(2-((2-bromophenyl)amino)-2-oxoethyl)-2-(morpholinomethyl)-1H-benzo[d]imidazol-3-ium chloride]	55 ± 0.14 µM	–
Oc1ccc(-c2nc3cc(N4CCOCC4)ccc3[nH]2)cc1 [IV X=O]	–	IC50 (α-glucosidase [2]; [3]): 3.4 ± 0.86 µM
O=C(C[n+]1c(CN2CCOCC2)n(Cc2ccccc2)c2ccccc21)Nc1ccccc1Cl [Compound 5a, 1-Benzyl-3-(2-((2-chlorophenyl)amino)-2-oxoethyl)-2-(morpholinomethyl)-1H-benzo[d]imidazol-3-ium chloride]	50 ± 0.04 µM	–
O=C(c1ccccc1)c1ccc2nc(-c3ccc(O)cc3)[nH]c2c1 [II]	–	IC50 (α-glucosidase [2]; benzoylarylbenzimidazoles): 11.02 ± 0.04 µM
CN1CCN(c2ccc3[nH]c(-c4ccc(O)cc4)nc3c2)CC1 [IV X=NMe]	–	IC50 (α-glucosidase [2]; [3]): 2.25 ± 0.28 µM
O=C(C[n+]1c(CN2CCOCC2)n(Cc2ccccc2)c2ccccc21)Nc1ccccc1[N+](=O)[O-] [Compound 5e, 1-Benzyl-3-(2-((2-nitrophenyl)amino)-2-oxoethyl)-2-(morpholinomethyl)-1H-benzo[d]imidazol-3-ium chloride]	30 ± 0.11 µM	–
